Structures are written as SMILES.

Results on 12 compounds are retold here after ChEMBL document CHEMBL4304795, “Bis-benzoxaboroles: Design, Synthesis, and Biological Evaluation as Carbonic Anhydrase Inhibitors” (ACS Med Chem Lett, 2019).

For one test, the target named is Carbonic anhydrase 1 (Homo sapiens, UniProt P00915). In words: Inhibition of human carbonic anhydrase 1 assessed as reduction in CO2 hydration preincubated for 15 mins to 2 hrs by phenol red dye based stopped flow CO2 hydrase assay.
Sequence of Carbonic anhydrase 1 (P00915 whole entry): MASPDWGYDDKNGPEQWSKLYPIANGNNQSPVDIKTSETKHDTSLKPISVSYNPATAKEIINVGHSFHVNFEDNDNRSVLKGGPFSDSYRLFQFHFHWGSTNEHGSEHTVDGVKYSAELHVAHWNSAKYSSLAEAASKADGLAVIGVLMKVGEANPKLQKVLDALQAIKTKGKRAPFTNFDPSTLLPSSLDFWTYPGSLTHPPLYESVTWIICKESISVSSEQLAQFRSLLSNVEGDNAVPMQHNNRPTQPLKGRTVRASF
The target of another test is Carbonic anhydrase 2 (Homo sapiens, UniProt P00918). The test can be described thus: Inhibition of human carbonic anhydrase 2 assessed as reduction in CO2 hydration preincubated for 15 mins to 2 hrs by phenol red dye based stopped flow CO2 hydrase assay.
The target in another test is Carbonic anhydrase 9 (Homo sapiens, UniProt Q16790). The test can be described thus: Inhibition of human carbonic anhydrase 9 assessed as reduction in CO2 hydration preincubated for 15 mins to 2 hrs by phenol red dye based stopped flow CO2 hydrase assay.
In a further test the target is Carbonic anhydrase 4 (Homo sapiens, UniProt P22748). In words: Inhibition of human carbonic anhydrase 4 assessed as reduction in CO2 hydration preincubated for 15 mins to 2 hrs by phenol red dye based stopped flow CO2 hydrase assay.
Sequence of Carbonic anhydrase 4 (P22748 whole entry): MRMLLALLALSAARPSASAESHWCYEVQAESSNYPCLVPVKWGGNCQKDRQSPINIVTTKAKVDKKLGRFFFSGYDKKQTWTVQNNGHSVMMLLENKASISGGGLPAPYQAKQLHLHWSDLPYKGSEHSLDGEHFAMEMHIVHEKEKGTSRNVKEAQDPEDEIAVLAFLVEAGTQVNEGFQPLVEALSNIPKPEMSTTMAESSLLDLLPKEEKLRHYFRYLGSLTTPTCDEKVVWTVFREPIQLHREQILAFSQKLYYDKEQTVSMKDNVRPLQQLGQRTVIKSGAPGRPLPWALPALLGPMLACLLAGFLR

For the compound `OB1OCc2ccc(/N=C/c3ccc(/C=N/c4ccc5c(c4)B(O)OC5)s3)cc21`, the Ki is 4130 nM at Carbonic anhydrase 1, 2340 nM on Carbonic anhydrase 2 and 203 nM on Carbonic anhydrase 9.
On the same counts, the results for `O=C(CCC(=O)Nc1ccc2c(c1)B(O)OC2)Nc1ccc2c(c1)B(O)OC2` are 2890 nM, 342 nM and 680 nM.
`O=C(/C=C/C(=O)Nc1ccc2c(c1)B(O)OC2)Nc1ccc2c(c1)B(O)OC2`: the Ki on Carbonic anhydrase 1 came out at 3210 nM; on Carbonic anhydrase 2, 1710 nM; at Carbonic anhydrase 9, 1480 nM.
In the case of `O=c1c(Nc2ccc3c(c2)B(O)OC3)c(Nc2ccc3c(c2)B(O)OC3)c1=O`, the Ki stood at 3080 nM on Carbonic anhydrase 1 and 2280 nM at Carbonic anhydrase 2.
As for `O=C(C/C=C/CC(=O)Nc1ccc2c(c1)B(O)OC2)Nc1ccc2c(c1)B(O)OC2`, the Ki at Carbonic anhydrase 1 was 2450 nM; at Carbonic anhydrase 2, 2580 nM; on Carbonic anhydrase 9, 1120 nM.
The corresponding values for `O=C(CCCCC(=O)Nc1ccc2c(c1)B(O)OC2)Nc1ccc2c(c1)B(O)OC2` are 1670 nM, 541 nM and 312 nM.
On the same counts, the results for `O=C(CC[C@H](NC(=O)OCc1ccccc1)C(=O)Nc1ccc2c(c1)B(O)OC2)Nc1ccc2c(c1)B(O)OC2` are 1780 nM, 289 nM and 64.3 nM.
For the compound `O=C(Nc1ccc2c(c1)B(O)OC2)c1cc(C(=O)Nc2ccc3c(c2)B(O)OC3)cc(C(=O)Nc2ccc3c(c2)B(O)OC3)c1`, the Ki is 21900 nM on Carbonic anhydrase 1, 39300 nM at Carbonic anhydrase 2, above 100000 nM on Carbonic anhydrase 4 and 8630 nM at Carbonic anhydrase 9.
For the compound `CC(C)(C)OC(=O)N[C@@H](CC(=O)Nc1ccc2c(c1)B(O)OC2)C(=O)Nc1ccc2c(c1)B(O)OC2`, the Ki worked out at 813 nM on Carbonic anhydrase 1, 908 nM on Carbonic anhydrase 2 and 280 nM at Carbonic anhydrase 9.
On the same counts, the results for `O=C(O)c1ccc2c(c1)B(O)OC2` are 850 nM, 173 nM and 400 nM.
Take `O=C(CC(=O)Nc1ccc2c(c1)B(O)OC2)Nc1ccc2c(c1)B(O)OC2`: the Ki was determined as 886 nM at Carbonic anhydrase 1, 339 nM at Carbonic anhydrase 2 and 158 nM at Carbonic anhydrase 9.
The corresponding values for `O=C(/C=C/C=C/C(=O)Nc1ccc2c(c1)B(O)OC2)Nc1ccc2c(c1)B(O)OC2` are 3300 nM, 3930 nM and 4870 nM.

Broadly, the Ki is the equilibrium dissociation constant of an inhibitor or competing ligand from its target.
